Earlier results as cited in patent US20230330068A1, “GEL COMPOSITION OF LULICONAZOLE FOR TREATMENT OF VAGINAL FUNGAL INFECTIONS AND ITS MANUFACTURING PROCESS” (priority 2023, published 2023).

Tested on: Candida
Settings: anticandidal activity; recent findings from the literature

- minimum inhibitory concentration (MIC) range: 31 to 130 µg/mL
SMILES: N#C/C(=C1/SC[C@@H](c2ccc(Cl)cc2Cl)S1)n1ccnc1 [Luliconazole]
